Experimental data from patent US12398154B2, “Azaquinazoline pan-KRas inhibitors” (Mirati Therapeutics, Inc., priority 2020, dated 2025).

Experiments:
Test in all cases: biochemical
[1] = molecular target: KRas G12D (Homo sapiens, UniProt P01116, G12D);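 also: TR-FRET displacement binding assay on KRas, read after a one-hour incubation at room temperature, IC50 fitted from percent-of-control values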
Experimental: (§1) The ability of a compound to bind to KRas was measured using a TR-FRET displacement assay. […] After a 60-minute incubation at room temperature, the reaction was measured using a BMG LABTECH CLARIO star Plus via TR-FRET. […] The POC values were fit to a 4-parameter IC50 equation and the IC50 value reported.

[2] = molecular target: KRas G12V (Homo sapiens, UniProt P01116, G12V);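 also: KRas binding measured by TR-FRET displacement at room temperature, IC50 fitted from percent of control values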
KRas G12V, sequence (P01116 1-169 isoform P01116-2 G12V): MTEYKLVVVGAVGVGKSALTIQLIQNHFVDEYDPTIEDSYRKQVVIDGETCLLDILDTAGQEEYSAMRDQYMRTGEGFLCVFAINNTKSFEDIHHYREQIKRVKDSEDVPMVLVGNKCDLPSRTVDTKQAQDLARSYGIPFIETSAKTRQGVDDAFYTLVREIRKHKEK
Experimental: as §1

[3] = molecular target: KRas G12R (Homo sapiens, UniProt P01116, G12R);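 also: TR-FRET displacement assay of compound binding to KRas, read after one hour at room temperature, potency from a four-parameter fit of percent-of-control values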
KRas G12R, sequence (P01116 1-169 isoform P01116-2 G12R): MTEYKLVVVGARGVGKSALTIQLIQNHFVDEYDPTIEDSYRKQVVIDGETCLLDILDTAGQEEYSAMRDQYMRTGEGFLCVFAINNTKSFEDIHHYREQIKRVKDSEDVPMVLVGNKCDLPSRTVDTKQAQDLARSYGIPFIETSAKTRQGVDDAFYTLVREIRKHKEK
Experimental: as §1

[4] = molecular target: KRas G12A (Homo sapiens, UniProt P01116, G12A);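 also: binding to KRas measured by TR-FRET displacement after one hour at room temperature, IC50 from a four-parameter fit of percent-of-control values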
KRas G12A, sequence (P01116 1-169 isoform P01116-2 G12A): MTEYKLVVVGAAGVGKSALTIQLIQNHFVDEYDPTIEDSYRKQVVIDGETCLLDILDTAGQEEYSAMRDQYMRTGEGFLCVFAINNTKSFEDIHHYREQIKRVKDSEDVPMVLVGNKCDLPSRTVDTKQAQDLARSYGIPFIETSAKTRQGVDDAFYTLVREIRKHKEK
Experimental: as §1

[5] = molecular target: KRas G12S (Homo sapiens, UniProt P01116, G12S);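 also: TR-FRET displacement binding to KRas, read after one hour incubation at room temperature, IC50 from four-parameter fit of percent of control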
KRas G12S, sequence (P01116 1-169 isoform P01116-2 G12S): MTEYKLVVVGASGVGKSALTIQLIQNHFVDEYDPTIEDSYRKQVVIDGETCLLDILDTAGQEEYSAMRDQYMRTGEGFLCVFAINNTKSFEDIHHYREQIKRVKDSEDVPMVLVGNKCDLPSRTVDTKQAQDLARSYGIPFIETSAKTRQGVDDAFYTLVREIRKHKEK
Experimental: as §1

[6] = molecular target: KRas G12C (Homo sapiens, UniProt P01116, G12C);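 also: binding to KRas assessed by TR-FRET displacement after one hour incubation at room temperature, potency fitted from percent-of-control values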
KRas G12C, sequence (P01116 1-169 isoform P01116-2 G12C): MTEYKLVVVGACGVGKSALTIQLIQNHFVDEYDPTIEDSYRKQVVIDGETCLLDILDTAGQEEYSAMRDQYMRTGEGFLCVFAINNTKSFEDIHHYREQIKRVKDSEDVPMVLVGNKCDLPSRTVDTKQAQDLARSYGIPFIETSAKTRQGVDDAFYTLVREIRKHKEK
Experimental: as §1

[7] = molecular target: KRas WT (Homo sapiens, UniProt P01116);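 also: binding to KRas read as TR-FRET displacement after a one-hour room-temperature incubation, IC50 derived from percent-of-control values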
KRas WT, sequence (P01116 1-169 isoform P01116-2): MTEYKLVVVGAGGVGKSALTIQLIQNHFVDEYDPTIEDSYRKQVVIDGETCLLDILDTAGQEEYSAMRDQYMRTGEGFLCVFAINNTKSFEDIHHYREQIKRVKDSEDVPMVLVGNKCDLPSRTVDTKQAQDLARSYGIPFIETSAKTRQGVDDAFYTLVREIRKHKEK
Experimental: as §1

KRas G12D, sequence (P01116 1-169 isoform P01116-2 G12D): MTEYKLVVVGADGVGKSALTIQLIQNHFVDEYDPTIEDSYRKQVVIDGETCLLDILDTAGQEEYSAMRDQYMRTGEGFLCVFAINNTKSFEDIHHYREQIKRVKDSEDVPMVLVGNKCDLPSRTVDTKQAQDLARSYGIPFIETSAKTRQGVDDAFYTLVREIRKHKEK

Compound | IC50 [1] | IC50 [2] | IC50 [3] | IC50 [4] | IC50 [5] | IC50 [6] | IC50 [7]
CNc1cc2n(n1)CCCN(c1nc(OCC34CCCN3CCC4)nc3c(F)c(-c4cccc5cccc(F)c45)ncc13)C2 [Example 263, 5-(8-fluoro-7-(8-fluoronaphthalen-1-yl)-2-((tetrahydro-1H-pyrrolizin-7a(5H)-yl)methoxy)pyrido[4,3-d]pyrimidin-4-yl)-N-methyl-5,6,7,8-tetrahydro-4H-pyrazolo[1,5-a][1,4]diazepin-2-amine] | 1980 nM | 4030 nM | 3040 nM | 4940 nM | 3550 nM | 4410 nM | 9090 nM
O=C1CC2(CCCN(c3nc(OCC45CCCN4CCC5)nc4c(F)c(-c5cccc6cccc(F)c56)ncc34)C2)C(=O)N1 (stereo not drawn) [Example 265, 7-(8-fluoro-7-(8-fluoronaphthalen-1-yl)-2-((hexahydro-1H-pyrrolizin-7a-yl)methoxy)pyrido[4,3-d]pyrimidin-4-yl)-2,7-diazaspiro[4.5]decane-1,3-dione] | 5310 nM | 2740 nM | 1920 nM | 3020 nM | 2510 nM | 3310 nM | 2460 nM
O=C1NC(=O)C2(CCCCN(c3nc(OCC45CCCN4CCC5)nc4c(F)c(-c5cccc6cccc(F)c56)ncc34)C2)N1 (stereo not drawn) [Example 267, 7-(8-fluoro-7-(8-fluoronaphthalen-1-yl)-2-((hexahydro-1H-pyrrolizin-7a-yl)methoxy)pyrido[4,3-d]pyrimidin-4-yl)-1,3,7-triazaspiro[4.6]undecane-2,4-dione] | 4370 nM | 1710 nM | 1720 nM | 2500 nM | 2070 nM | 2250 nM | 1560 nM
OCC1CN(c2nc(OCC34CCCN3CCC4)nc3c(F)c(-c4cccc5cccc(F)c45)ncc23)CCCO1 (stereo not drawn) [Example 269, (4-(8-fluoro-7-(8-fluoronaphthalen-1-yl)-2-((hexahydro-1H-pyrrolizin-7a-yl)methoxy)pyrido[4,3-d]pyrimidin-4-yl)-1,4-oxazepan-2-yl)methanol] | 1910 nM | 1000 nM | 1060 nM | 1050 nM | 725 nM | 608 nM | 1060 nM
O=C1NC(=O)C2(COCCN(c3nc(OCC45CCCN4CCC5)nc4c(F)c(-c5cccc6cccc(F)c56)ncc34)C2)N1 (stereo not drawn) [Example 272, 10-(8-fluoro-7-(8-fluoronaphthalen-1-yl)-2-((hexahydro-1H-pyrrolizin-7a-yl)methoxy)pyrido[4,3-d]pyrimidin-4-yl)-7-oxa-1,3,10-triazaspiro[4.6]undecane-2,4-dione] | 194 nM | 130 nM | 120 nM | 138 nM | 132 nM | 141 nM | 116 nM
O=C1C[C@@]2(CCN(c3nc(OCC45CCCN4CCC5)nc4c(F)c(-c5cccc6cccc(F)c56)ncc34)C2)CN1 [Example 280, (S)-7-(8-fluoro-7-(8-fluoronaphthalen-1-yl)-2-((hexahydro-1H-pyrrolizin-7a-yl)methoxy)pyrido[4,3-d]pyrimidin-4-yl)-2,7-diazaspiro[4.4]nonan-3-one] | ≥ 100000 nM | ≥ 100000 nM | ≥ 100000 nM | ≥ 100000 nM | ≥ 100000 nM | 9860 nM | ≥ 100000 nM
NS(=O)(=O)CC1CCCN(c2nc(OCC34CCCN3CCC4)nc3c(F)c(-c4cccc5cccc(Cl)c45)ncc23)C1 (stereo not drawn) [Example 281, 1-(1-(7-(8-chloronaphthalen-1-yl)-8-fluoro-2-((tetrahydro-1H-pyrrolizin-7a(5H)-yl)methoxy)pyrido[4,3-d]pyrimidin-4-yl)piperidin-3-yl)methanesulfonamide] | 213 nM | 170 nM | 81 nM | 59 nM | 67 nM | 75 nM | 61 nM
CCc1cccc2cccc(-c3ncc4c(N5CCCC(CS(N)(=O)=O)C5)nc(OCC56CCCN5CCC6)nc4c3F)c12 (stereo not drawn) [Example 285, 1-(1-(7-(8-ethylnaphthalen-1-yl)-8-fluoro-2-((tetrahydro-1H-pyrrolizin-7a(5H)-yl)methoxy)pyrido[4,3-d]pyrimidin-4-yl)piperidin-3-yl)methanesulfonamide] | 976 nM | 864 nM | 350 nM | 367 nM | 359 nM | 426 nM | 323 nM
CCc1cccc2cccc(-c3ncc4c(N5CCCC6(CNC(=O)C6)C5)nc(OCC56CCCN5CCC6)nc4c3F)c12 (stereo not drawn) [Example 286, 7-(7-(8-ethylnaphthalen-1-yl)-8-fluoro-2-((hexahydro-1H-pyrrolizin-7a-yl)methoxy)pyrido[4,3-d]pyrimidin-4-yl)-2,7-diazaspiro[4.5]decan-3-one] | 313 nM | 521 nM | 674 nM | 370 nM | 407 nM | 410 nM | 608 nM
CCc1cccc2cccc(-c3ncc4c(NCc5cn[nH]c5)nc(OCC56CCCN5CCC6)nc4c3F)c12 [Example 287, N-((1H-pyrazol-4-yl)methyl)-7-(8-ethylnaphthalen-1-yl)-8-fluoro-2-((hexahydro-1H-pyrrolizin-7a-yl)methoxy)pyrido[4,3-d]pyrimidin-4-amine] | 8170 nM | 225 nM | 225 nM | 648 nM | 590 nM | 321 nM | 838 nM
CCc1cccc2cccc(-c3ncc4c(N5CCOCC(CO)C5)nc(OCC56CCCN5CCC6)nc4c3F)c12 (stereo not drawn) [Example 289, (4-(7-(8-ethylnaphthalen-1-yl)-8-fluoro-2-((hexahydro-1H-pyrrolizin-7a-yl)methoxy)pyrido[4,3-d]pyrimidin-4-yl)-1,4-oxazepan-6-yl)methanol] | 5610 nM | 807 nM | 754 nM | 607 nM | 520 nM | 407 nM | 818 nM
CCc1cccc2cccc(-c3ncc4c(N5CC6CC(O)C(C6)C5)nc(OCC56CCCN5CCC6)nc4c3F)c12 (stereo not drawn) [Example 290, 3-(7-(8-ethylnaphthalen-1-yl)-8-fluoro-2-((hexahydro-1H-pyrrolizin-7a-yl)methoxy)pyrido[4,3-d]pyrimidin-4-yl)-3-azabicyclo[3,2,1]octan-6-ol] | 582 nM | 171 nM | 176 nM | 183 nM | 147 nM | 207 nM | 276 nM

Stronger by IC50 [1], values ahead:

IC50 [1] | IC50 [2] | IC50 [3] | IC50 [4] | IC50 [5] | IC50 [6] | IC50 [7] | Compound
30 nM | 15 nM | 18 nM | 16 nM | 15 nM | 16 nM | 15 nM | O=C1NC(=O)C2(CCCN(c3nc(OCC45CCCN4CCC5)nc4c(F)c(-c5cccc6cccc(Cl)c56)ncc34)C2)N1 (stereo not drawn) [Example 282, 7-(7-(8-chloronaphthalen-1-yl)-8-fluoro-2-((hexahydro-1H-pyrrolizin-7a-yl)methoxy)pyrido[4,3-d]pyrimidin-4-yl)-1,3,7-triazaspiro[4.5]decane-2,4-dione]
97 nM | 90 nM | 129 nM | 97 nM | 91 nM | 77 nM | 113 nM | O=C1CC2(CCCN(c3nc(OCC45CCCN4CCC5)nc4c(F)c(-c5cccc6cccc(Cl)c56)ncc34)C2)N1 (stereo not drawn) [Example 283, 6-(7-(8-chloronaphthalen-1-yl)-8-fluoro-2-((tetrahydro-1H-pyrrolizin-7a(5H)-yl)methoxy)pyrido[4,3-d]pyrimidin-4-yl)-1,6-diazaspiro[3.5]nonan-2-one]
38 nM | 41 nM | 58 nM | 46 nM | 45 nM | 44 nM | 46 nM | O=C1NCC2(CCCN(c3nc(OCC45CCCN4CCC5)nc4c(F)c(-c5cccc6cccc(Cl)c56)ncc34)C2)N1 (stereo not drawn) [Example 284, 7-(7-(8-chloronaphthalen-1-yl)-8-fluoro-2-((hexahydro-1H-pyrrolizin-7a-yl)methoxy)pyrido[4,3-d]pyrimidin-4-yl)-1,3,7-triazaspiro[4.5]decan-2-one]
53 nM | 67 nM | 78 nM | 95 nM | 82 nM | 68 nM | 89 nM | CCc1cccc2cccc(-c3ncc4c(N5CCCC6(CC(=O)N6)C5)nc(OCC56CCCN5CCC6)nc4c3F)c12 (stereo not drawn) [Example 288, 6-(7-(8-ethylnaphthalen-1-yl)-8-fluoro-2-((hexahydro-1H-pyrrolizin-7a-yl)methoxy)pyrido[4,3-d]pyrimidin-4-yl)-1,6-diazaspiro[3.5]nonan-2-one]
140 nM | 277 nM | 439 nM | 229 nM | 192 nM | 161 nM | 269 nM | CCc1cccc2cccc(-c3ncc4c(N5CCOCC(C)(O)C5)nc(OCC56CCCN5CCC6)nc4c3F)c12 (stereo not drawn) [Example 291, 4-(7-(8-ethylnaphthalen-1-yl)-8-fluoro-2-((hexahydro-1H-pyrrolizin-7a-yl)methoxy)pyrido[4,3-d]pyrimidin-4-yl)-6-methyl-1,4-oxazepan-6-ol]
21 nM | 61 nM | 180 nM | 97 nM | 26 nM | 88 nM | 68 nM | CCc1cccc2cccc(-c3ncc4c(N5CC6C(=O)NC(=O)C6C5)nc(OCC56CCCN5CCC6)nc4c3F)c12 (stereo not drawn) [Example 292, 5-(7-(8-ethylnaphthalen-1-yl)-8-fluoro-2-((hexahydro-1H-pyrrolizin-7a-yl)methoxy)pyrido[4,3-d]pyrimidin-4-yl)tetrahydropyrrolo[3,4-c]pyrrole-1,3(2H,3aH)-dione]
